Assay results from paper doi:10.1101/2025.10.26.684696v1 (bioRxiv, 2025).
Residues, ends and D or L forms follow the SMILES beside them.

Legend:
[1] = Stability in human plasma; format: in vitro ADME
[2] = Stability in simulated intestinal fluid; format: in vitro ADME; conditions: pH 6.5
[3] = LogD7.4 by miniaturized shake-flask procedure; format: physicochemical; conditions: miniaturized shake-flask procedure at pH 7.4
[4] = Caco-2 cell permeability; format: in vitro ADME
[5] = Stability in simulated gastric fluid; format: in vitro ADME; conditions: pH 1.6
[6] = Stability in rat liver microsomes; format: in vitro ADME
[7] = reference compound; cited from earlier work
[8] = reference compound; cited from earlier work; remark: listed apart in the source

`N=C(N)NCCC[C@@H]1NC(=O)CNC(=O)CNC(=O)[C@H](Cc2c[nH]cn2)NC(=O)CNC(=O)CNC(=O)[C@H](Cc2c[nH]c3ccccc23)NC(=O)[C@H](Cc2c[nH]c3ccccc23)NC(=O)CNC(=O)[C@H](CCCCN)NC(=O)CNC(=O)[C@H](CO)NC(=O)CNC(=O)CNC(=O)[C@H](Cc2c[nH]c3ccccc23)NC1=O` [SP4] (cyclo(GGHGGRWGGSGKGWW)) gave a remaining at 1 h [1] of 89.4%, a half-life [2] of 7.6 h and a LogD7.4 [3] of 0.86. The Papp A→B [4] was 1.78 ×10⁻⁶ cm/s, the Papp B→A [4] was 2.15 ×10⁻⁶ cm/s and the efflux ratio [4] was ~1.2. For the same compound, the half-life [5] was 1.8 h and the half-life [6] was 4.7 h.
For `CC[C@H]1OC(=O)[C@H](C)[C@@H](O[C@H]2C[C@@](C)(OC)[C@@H](O)[C@H](C)O2)[C@H](C)[C@@H](O[C@@H]2O[C@H](C)C[C@H](N(C)C)[C@H]2O)[C@](C)(O)C[C@@H](C)C(=O)[C@H](C)[C@@H](O)[C@]1(C)O` [erythromycin], the “Stability in intestinal simulated fluids (t1/2)” value [7] is listed as 7.55 h.
In the case of `CC(C)[N+](C)(CCOC(=O)C1c2ccccc2Oc2ccccc21)C(C)C` [propantheline], the “Human plasma stability (t1/2)” value [8] is given as 2.6 min.
